Biological target: C145A mutant of M^pro (Severe acute respiratory syndrome coronavirus 2, UniProt P0DTD1, C3408A)
Format: cell-based, SARS-CoV-2

SMILES: C#CC[C@H](NC(=O)C(F)(F)F)C(=O)N1C[C@H]2[C@@H]([C@H]1C(=O)N[C@H](C#C)C[C@@H]1CCNC1=O)C2(C)C [Alk-4d, O=C1NCC[C@H]1C[C@@H](C#C)NC([C@H]2N(C([C@@H](NC(C(F)(F)F)=O)CC#C)=O)C[C@H]3[C@@H]2C3(C)C)=O]
- labeling of C145A mutant of M^pro in cells: no labeling

From paper PMC10510381, “Alkyne as a Latent Warhead to Covalently Target SARS-CoV-2 Main Protease” (Journal of Medicinal Chemistry, 2023)
